The results in this text go back to patent US10730870B2, “Compounds and methods for the enhanced degradation of targeted proteins” (Arvinas, Inc., priority 2015, dated 2020).

The subject of one test is Androgen Receptor. As to the kind of experiment: Androgen receptor ELISA assay (AR degradation) in LNCaP and/or VCaP cells. Format: cell-based. The settings on record: AR PROTACs. On the procedure:
Compounds have been evaluated in this assay in LNCaP and/or VCaP cells utilizing similar protocols. The protocols used with VCaP cells are described below. The androgen receptor ELISA assay was performed using PathScan AR ELISA (Cell Signaling Catalog #12850) according to the following assay steps:
VCaP cells are seeded at 30,000 cells/well at a volume of 200 μL/well in VCaP assay medium [Phenol red free RPMI (Gibco Cat #11835-030); 5% Charcoal Stripped (Dextran treated) FBS (Omega Scientific, Cat # FB-04); Pen/Strep Life Technologies (Gibco Cat #: 10378-016); 0.1 nM R1881 (Sigma, Cat # R0908) is added upon the start of the assay, not during initial plating of the cells) in Corning 3904 plates. The cells are grown for a minimum of 3 days.
(2)(i) Make 10× stock plate in media; (ii) transfer 2.5 μL of the 1000× stock to a new 10× stock plate (use 12 channel pipet, start at A (DMSO control) work thru H. When 247.5 μL of media is added to this plate, it will serve as a 10× stock; (iii) make media+1 nM R1881 for making 10× stock plate; (iv) add 247.5 μL of media with 1 nM R1881 to each well of the 10× stock plate, mix.
Then 22 μL of 10× stock is added to cells and incubated for 24h. 1× Cell Signaling Cell lysis buffer is made (Catalogue #9803; comes with the kit)—prepare for 50 μL/well. Keep on ice. Media is aspirated, and 50 μL 1× cell lysis buffer/well is added. The cells are placed on ice for 10 minutes. The solution is mixed and transferred to PCR plate, and centrifuged at 4 C for 10 minutes at 4000 rpm.
5 μL is transferred to fresh plate (use immediately or freeze −80 C); 115 μL ELISA Dilutant is added (0.15 ug/ml-0.075 ug/ml; comes with the PathScan ELISA).
Add 100 μL/well AR Elisa; cover and shake, 37 C for 2 hrs; dump, tap, wash 4×200 μL ELISA wash buffer; add 100 μL/well mouse AR detection Ab; cover and shake, 37 C for 1 hr; dump, tap, wash 4×200 μL ELISA wash buffer; add 100 μL/well anti-mouse—HRP conjugated Ab (comes with the kit); cover and shake, 37 C for 30 min; allow TMB reagent to come to RT; dump, tap, wash 4×200 μL Elisa wash buffer; tap; add 100 μL TMB, shake 5 min—while watching color. Add the stop reagent when light blue color develops. Add 100 μL Stop solution; shake and read at 450 nm.
The results presented in Table 3 were generated using the androgen receptor ELISA Assay described above, where compound potencies were characterized in highest percentage of Androgen Receptor degradation (Dmax) observed.

A further test relates to BRD4. Nature of the test: BRD4 c-myc ELISA assay in 22RV-1 cells. Format: cell-based. The settings on record: 18 hrs. On the procedure:
22RV-1 cells were seeded at 30,000 cells/well at a volume of 75 μL/well in RPMI +10% FBS media in 96-well plates and grown overnight at 37 C. Cells were dosed with compounds at 4× concentration diluted in 0.4% DMSO; compounds were serially diluted 1:3 for 8-point dose curve. 25 ul of compound was added to cells for a final concentration starting at 300 nM-0.3 nM in 0.1% DMSO and incubated for 18 hrs. Media was aspirated, cells washed 1× with PBS and aspirated. Cells were lysed in 50 ul RIPA buffer (50 mM Tris pH8, 150 mM NaCl, 1% Tx-100, 0.1% SDS, 0.5% sodium deoxycholate) supplemented with protease and phosphatase inhibitors. Plates were incubated on ice for 15 minutes then centrifuged at 4° C. for 10 min at 4000 rpm. Added 50 ul of cleared lysate from 96-well assay plate into 96-well c-myc ELISA plate (Novex, Life Technologies Catalog # KH02041). […] The rest of the assay was performed following the protocol from the c-myc ELISA kit. Data was analyzed and plotted using GraphPad Prism software.

The next test addresses VHL (Homo sapiens (Human), UniProt P40337). Nature of the test: VHL fluorescence polarization (FP) competition assay. Format: binding. Background: Fluorescence polarisation rises when a labelled molecule tumbles more slowly, as on binding a larger partner.

A value given as a limit tells only on which side of the number the result lay.

A word on the IC50: it is the midpoint of a concentration-inhibition curve. Read a high IC50 as lower potency.

For the compound `Cc1ncsc1-c1ccc([C@H](C)NC(=O)[C@@H]2C[C@@H](O)CN2C(=O)[C@H](C(C)C)n2cc(OCCCOCCC(O)CCOc3ccc(N4C(=S)N(c5ccc(C#N)c(C(F)(F)F)c5)C(=O)C4(C)C)cc3)cn2)cc1` (stereo partly shown), in the test on Androgen Receptor, the “Dmax (highest percentage of Androgen Receptor degradation)” value is recorded as “+++ (51%≤Dmax≤70%)”. Still for that read-out and setting: with `Cc1ncsc1-c1ccc([C@H](C)NC(=O)[C@@H]2C[C@@H](O)CN2C(=O)[C@H](C(C)C)n2cc(-c3ccnc(OC4CN(c5ccc(C(=O)N[C@H]6C(C)(C)[C@H](Oc7ccc(C#N)c(Cl)c7)C6(C)C)cn5)C4)c3)cn2)cc1` the entry was “+++ (51%≤Dmax≤70%)”. For `Cc1ncsc1-c1ccc([C@H](C)NC(=O)[C@@H]2C[C@@H](O)CN2C(=O)[C@H](C(C)C)n2cc(-c3ccnc(O[C@H]4C[C@H](NC(=O)C[C@@H]5N=C(c6ccc(Cl)cc6)c6c(sc(C)c6C)-n6c(C)nnc65)C4)c3)cn2)cc1`, in the test on BRD4, the “cMyc Imax” value is recorded as “++++ (71%≤Imax)”.

`Cc1ncsc1-c1ccc([C@H](C)NC(=O)[C@@H]2C[C@@H](O)CN2C(=O)[C@H](C(C)C)n2cc(-c3ccnc(N4CCC(Nc5ccc(C(=O)N[C@H]6C(C)(C)[C@H](Oc7ccc(C#N)c(Cl)c7)C6(C)C)cc5)C4)c3)cn2)cc1` (stereo partly shown): in the test with Androgen Receptor, the “Dmax (highest percentage of Androgen Receptor degradation)” value is “++ (26%≤Dmax≤50%)”. In the case of `Cc1ncsc1-c1ccc(CNC(=O)[C@@H]2C[C@@H](O)CN2C(=O)C(C(C)C)n2cc(OC3CCN(c4ccc(-c5ccc(N6C(=S)N(c7ccc(C#N)c(C(F)(F)F)c7)C(=O)C6(C)C)cc5)cn4)CC3)cn2)cc1` (stereo partly shown), the “Dmax (highest percentage of Androgen Receptor degradation)” value in the test with Androgen Receptor was “++ (26%≤Dmax≤50%)”. Turning to `Cc1ncsc1-c1ccc([C@H](C)NC(=O)[C@@H]2C[C@@H](O)CN2C(=O)[C@H](C(C)C)n2cc(-c3ccnc(OC4CN(c5ncc(C(=O)NC6C(C)(C)C(Oc7ccc(C#N)c(Cl)c7)C6(C)C)cn5)C4)c3)cn2)cc1` (stereo partly shown), in the test with Androgen Receptor, the “Dmax (highest percentage of Androgen Receptor degradation)” value was “+++ (51%≤Dmax≤70%)”. With `Cc1ncsc1-c1ccc(CNC(=O)[C@@H]2C[C@@H](O)CN2C(=O)[C@H](C(C)C)n2cc(-c3cccc(O[C@H](C)CNC(=O)C[C@@H]4N=C(c5ccc(Cl)cc5)c5c(sc(C)c5C)-n5c(C)nnc54)c3)cn2)cc1`, the “cMyc Imax” value in the test with BRD4 is reported as “++++ (71%≤Imax)”. Same read-out and setting: the value for `Cc1ncsc1-c1ccc([C@H](C)NC(=O)[C@@H]2C[C@@H](O)CN2C(=O)[C@H](C(C)C)n2cc(-c3ccnc(N4CC[C@H](NC(=O)C[C@@H]5N=C(c6ccc(Cl)cc6)c6c(sc(C)c6C)-n6c(C)nnc65)C4)c3)cn2)cc1` was “++++ (71%≤Imax)”; that for `Cc1ncsc1-c1ccc([C@H](C)NC(=O)[C@@H]2C[C@@H](O)CN2C(=O)[C@@H](n2cc(-c3ccnc(O[C@H]4C[C@@H](NC(=O)C[C@@H]5N=C(c6ccc(Cl)cc6)c6c(sc(C)c6C)-n6c(C)nnc65)C4)c3)cn2)C(C)(C)C)cc1` was “++++ (71%≤Imax)”; that for `Cc1ncsc1-c1ccc([C@H](C)NC(=O)[C@@H]2C[C@@H](O)CN2C(=O)[C@@H](C(C)C)n2cc(-c3ccnc(O[C@H]4C[C@H](NC(=O)C[C@@H]5N=C(c6ccc(Cl)cc6)c6c(sc(C)c6C)-n6c(C)nnc65)C4)c3)cn2)cc1` was “+++ (51%≤Imax≤70%)”. For the compound `CC(C)[C@@H](C(=O)N1C[C@](C)(O)C[C@H]1C(=O)O)N1Cc2ccccc2C1=O` [Example 79, (2S,4R)-4-hydroxy-4-methyl-1-[(2S)-3-methyl-2-(1-oxo-2,3-dihydro-1H-isoindol-2-yl)butanoyl]pyrrolidine-2-carboxylic acid], the IC50 at VHL (1% in DMSO) and on VHL (10% in DMSO) was over 100 µM throughout. `Cc1ncsc1-c1ccc(CNC(=O)[C@@H]2C[C@@H](O)CN2C(=O)C2(N3Cc4ccccc4C3=O)CCCC2)cc1` [Example 50, (2S,4R)-4-hydroxy-N-(4-(4-methylthiazol-5-yl)benzyl)-1-(1-(1-oxoisoindolin-2-yl)cyclopentanecarbonyl)pyrrolidine-2-carboxamide] came in with an IC50 at VHL (10% in DMSO) of 235 µM. `Cc1ncsc1-c1ccc(CNC(=O)[C@@H]2C[C@@](C)(O)CN2C(=O)[C@H](C(C)C)N2Cc3ccccc3C2=O)cc1` [Example 142, (2S,4R)-4-hydroxy-4-methyl-1-((S)-3-methyl-2-(1-oxoisoindolin-2-yl)butanoyl)-N-(4-(4-methylthiazol-5-yl)benzyl)pyrrolidine-2-carboxamide] registered an IC50 on VHL (1% in DMSO) of 134 µM.

For `CC[C@H](C)[C@@H](C(=O)N1C[C@H](O)C[C@H]1C(=O)NCc1ccc(-c2scnc2C)cc1)N1Cc2ccc(F)cc2C1=O` [Example 94, (2S,4R)-1-((2S,3S)-2-(6-fluoro-1-oxoisoindolin-2-yl)-3-methylpentanoyl)-4-hydroxy-N-(4-(4-methylthiazol-5-yl)benzyl)pyrrolidine-2-carboxamide], the IC50 on VHL (1% in DMSO) worked out at 0.566 µM. Same read-out and setting: with `Cc1ncsc1-c1ccc(CNC(=O)C2(C)C[C@@H](O)CN2C(=O)[C@H](C(C)C)N2Cc3ccccc3C2=O)cc1` (stereo partly shown) [Example 132] the figure was 1.69 µM. With `COc1ccc(CNC(=O)[C@@H]2C[C@@H](O)CN2C(=O)[C@H](C(C)C)N2Cc3ccccc3C2=O)cc1` [Example 81, (2S,4R)-4-hydroxy-N-(4-methoxybenzyl)-1-((S)-3-methyl-2-(1-oxoisoindolin-2-yl)butanoyl)pyrrolidine-2-carboxamide], the results for the IC50 at VHL (1% in DMSO) and at VHL (10% in DMSO) were over 49 µM and 371 µM, respectively.

On to `Cc1ncsc1-c1ccc(CNC(=O)[C@@H]2C[C@@H](O)CN2C(=O)[C@H](C(C)C)N2Cc3ncccc3C2=O)cc1` [Example 99, (2S,4R)-4-hydroxy-1-((S)-3-methyl-2-(5-oxo-5H-pyrrolo[3,4-b]pyridin-6(7H)-yl)butanoyl)-N-(4-(4-methylthiazol-5-yl)benzyl)pyrrolidine-2-carboxamide], for which the IC50 at VHL (1% in DMSO) was 0.418 µM. `Cc1ncsc1-c1ccc(CNC(=O)[C@@H]2C[C@@H](O)CN2C(=O)[C@@H](N2Cc3ccccc3C2=O)C(C)(C)C)cc1` [Example 65, (2S,4R)-1-((S)-3,3-dimethyl-2-(1-oxoisoindolin-2-yl)butanoyl)-4-hydroxy-N-(4-(4-methylthiazol-5-yl)benzyl)pyrrolidine-2-carboxamide]: the IC50 was 0.631 µM on VHL (1% in DMSO) and 0.578 µM on VHL (10% in DMSO). `Cc1cc(C(C)(C)C(=O)N2C[C@H](O)C[C@H]2C(=O)NCc2ccc(-c3scnc3C)cc2)on1` [Example 140, (2S,4R)-4-hydroxy-1-(2-methyl-2-(3-methylisoxazol-5-yl)propanoyl)-N-(4-(4-methylthiazol-5-yl)benzyl)pyrrolidine-2-carboxamide] registered an IC50 on VHL (1% in DMSO) of 157 µM. As to `CCCC(=O)N[C@H](C(=O)N1C[C@H](O)C[C@H]1C(=O)NCc1ccc(-c2scnc2C)cc1)C(C)(C)C` [Example 13, (2S,4R)-1-((S)-2-butyramido-3,3-dimethylbutanoyl)-4-hydroxy-N-(4-(4-methylthiazol-5-yl)benzyl)pyrrolidine-2-carboxamide], the results for the IC50 on VHL (0.25% in DMSO), at VHL (1% in DMSO) and at VHL (10% in DMSO) were 3.37 µM, 1.34 µM and 2.94 µM, respectively.
